The values below come from patent US9492436B2, “Azabenzimidazole derivatives” (Boehringer Ingelheim International GmbH, priority 2013, dated 2016).

Converted amounts (≈) assume the structure as drawn. Some results are limits rather than exact numbers.

Data set [1] relates to plasma proteins. Description: Plasma protein binding by equilibrium dialysis, human plasma. It counts as in vitro ADME. Conditions: 37° C. As to the method:
(§1) Equilibrium dialysis (ED) technique is used to determine the approximate in vitro fractional binding of test compounds to plasma proteins (human, rat mouse):
(§2) Teflon dialysis cells or RED-devices are used. Each cell consists of a donor and an acceptor chamber, separated by an ultrathin semipermeable membrane (cutoff 5-10 kDa, high permeability).
(§3) Stock solutions for each test compound are prepared in DMSO. Plasma (anticoagulant EDTA) is spiked with test compound and then transferred into the donor chamber, while dialysis buffer (PBS containing Dextran, pH 7.4) is dispensed into the acceptor chamber.
(§4) Dextran (Leuconostoc ssp, MW approx. 40000, No. 31389, Fluka) concentration [g/L] in PBS for species: • human: 40 g/L buffer • rat: 37 g/L buffer • mouse 32 g/L buffer.
(§5) Incubation is carried out for up to 6 hours (standard 3 h) under rotation at 37° C. After the dialysis period aliquots of both dialysates are analysed using HPLC-MS/MS.
(§6) Percent bound is calculated according to the equation: % bound=(Cp−Cb/Cp)×100 • Cp=plasma concentration • Cb=buffer concentration
(§7) Percent free is calculated according to the equation: % free=100−% bound
(In equilibrium dialysis only unbound substance equilibrates across the membrane.)

Data set [2] can be described thus: Aqueous solubility (buffer vs acetonitrile/water, 24 h shaking, LC-UV). It counts as physicochemical. The following applies: kinetic from dmso stock, 2.5% DMSO, ">" = more than 90% dissolved. As to the method:
The aqueous solubility of the compounds of the invention is determined by comparing the amount dissolved in buffer to the amount in an acetonitrile/water (1/1) solution. Starting from a 10 mM DMSO stock solution aliquots are diluted with acetonitrile/water (1/1) or buffer resp. After 24 h of shaking, the solutions are filtrated and analyzed by LC-UV. The amount dissolved in buffer is compared to the amount in the acetonitrile solution.
Solubility is usually being measured from 0.001 to 0.125 mg/ml at a DMSO concentration of 2.5%. If more than 90% of the compound is dissolved in buffer, the value is marked with “>”.

In data set [3] the test system is plasma proteins. Description: Plasma protein binding by equilibrium dialysis, rat plasma. It counts as in vitro ADME. The following applies: 37° C. As to the method:
as §1, §2, §3, §4, §5, §6, §7

Data set [4] relates to plasma proteins. Description: Plasma protein binding by equilibrium dialysis, mouse plasma. Conditions: 37° C. It counts as in vitro ADME. As to the method:
as §1, §2, §3, §4, §5, §6, §7

The target of data set [5] is T1, AMPK complex 1 (containing alpha1beta1gamma1) (Homo sapiens, UniProt Q13131+Q9Y478).
T1 construct: GST (Glutathion S transferase) (N); made in house; host or cells: baculovirus; virus made in Sf9, expression in High Five cells
Description: In vitro AMPK activation assay (ADP-Glo Kinase Assay). The following applies: 30 μM ATP, 1 μM peptide, 60 min, room temperature. It counts as biochemical. In a few lines: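 GST-tagged human AMPK alpha1beta1gamma1 expressed in insect cells, incubated with 1 μM peptide substrate and 30 μM ATP for 60 min at room temperature, 0.1% DMSO. ADP-Glo luminescence as % of vehicle control (AMP 30 μM high reference); EC50 from 4-parameter fit; activation above 100%.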
On the technique in general: ADP-Glo first removes unused ATP, then detects ADP through luciferase.

T1 sequence (Q13131 whole entry): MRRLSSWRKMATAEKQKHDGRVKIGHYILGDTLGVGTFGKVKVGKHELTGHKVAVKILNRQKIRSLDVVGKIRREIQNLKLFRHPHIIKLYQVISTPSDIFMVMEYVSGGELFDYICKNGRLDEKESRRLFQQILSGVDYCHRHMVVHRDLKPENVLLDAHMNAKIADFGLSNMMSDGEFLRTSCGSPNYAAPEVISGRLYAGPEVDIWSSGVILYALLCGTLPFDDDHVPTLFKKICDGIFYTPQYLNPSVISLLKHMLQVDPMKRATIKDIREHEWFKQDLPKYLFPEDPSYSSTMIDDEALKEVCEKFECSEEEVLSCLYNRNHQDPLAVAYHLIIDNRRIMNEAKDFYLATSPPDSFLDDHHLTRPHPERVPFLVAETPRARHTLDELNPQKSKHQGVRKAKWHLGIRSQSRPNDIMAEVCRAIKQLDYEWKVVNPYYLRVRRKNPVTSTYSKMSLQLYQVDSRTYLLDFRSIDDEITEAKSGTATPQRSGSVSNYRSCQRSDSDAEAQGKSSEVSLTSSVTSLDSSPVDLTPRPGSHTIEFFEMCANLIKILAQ
T1 sequence (Q9Y478 whole entry): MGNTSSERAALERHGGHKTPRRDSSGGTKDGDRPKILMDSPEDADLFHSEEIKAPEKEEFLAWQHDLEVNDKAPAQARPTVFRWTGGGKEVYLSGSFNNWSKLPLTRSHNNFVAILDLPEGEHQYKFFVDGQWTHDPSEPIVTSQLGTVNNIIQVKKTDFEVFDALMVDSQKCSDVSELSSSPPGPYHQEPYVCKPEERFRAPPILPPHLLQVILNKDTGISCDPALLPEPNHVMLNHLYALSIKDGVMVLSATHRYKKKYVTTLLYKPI
T1 sequence (P54619 whole entry partner): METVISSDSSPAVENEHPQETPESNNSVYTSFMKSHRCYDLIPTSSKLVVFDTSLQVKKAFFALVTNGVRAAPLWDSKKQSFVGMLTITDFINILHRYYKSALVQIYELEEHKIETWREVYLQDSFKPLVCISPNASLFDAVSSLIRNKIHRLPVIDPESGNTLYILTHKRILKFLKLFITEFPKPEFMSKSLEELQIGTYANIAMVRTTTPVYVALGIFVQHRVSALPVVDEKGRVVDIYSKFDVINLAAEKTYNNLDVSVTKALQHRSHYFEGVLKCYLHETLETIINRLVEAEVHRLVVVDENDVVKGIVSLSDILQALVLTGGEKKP

The term solubility denotes the dissolved amount per volume that the medium holds. Low values mean a poorly soluble substance, high ones a readily soluble substance. The term EC50 denotes the concentration at which the effect is half-maximal. A low value points to greater potency. On to `CS(C)(=O)=Nc1ccc(-c2ccc(-c3nc4[nH]c(O[C@@H]5CO[C@H]6[C@@H]5OC[C@H]6O)nc4cc3Cl)cc2)cc1` [Example 2, N-(4′-(6-Chloro-2-((3R,3aR,6R,6aR)-6-hydroxyhexahydrofuro[3,2-b]furan-3-yloxy)-3H-imidazo[4,5-b]pyridin-5-yl)biphenyl-4-yl)-S,S-dimethylsulfoximide], for which the results for the “Plasma Protein Binding” value in the data set with plasma proteins [1], with plasma proteins [3] and in the data set with plasma proteins [4] were 98.55 % bound, 98.67 % bound and 98.68 % bound, respectively. For the same compound, the solubility at 24 h is 17 µg/mL (≈ 31.4 µM) in data set [2] (pH 2.2 buffer), 2 µg/mL (≈ 3.7 µM) in data set [2] (pH 4.5 buffer) and 1 µg/mL (≈ 1.85 µM) in data set [2] (pH 6.8 buffer). Moreover, the midpoint of the response in data set [5], the EC50, lay at 3 nM.

With `CN=S(C)(=O)c1ccc(-c2ccc(-c3nc4[nH]c(O[C@@H]5CO[C@H]6[C@@H]5OC[C@H]6O)nc4cc3Cl)cc2)cc1` (stereo partly drawn) [Example 10, (3R,3aR,6R,6aR)-6-(6-Chloro-5-(4′-(N,S-dimethylsulfonimidoyl)biphenyl-4-yl)-3H-imidazo[4,5-b]pyridin-2-yloxy)hexahydrofuro[3,2-b]furan-3-ol], the “Plasma Protein Binding” value stood at 98.92 % bound with plasma proteins [1], 98.23 % bound in the data set with plasma proteins [3] and 98.64 % bound in the data set with plasma proteins [4]. Moreover, the results for the solubility at 24 h in data set [2] (pH 2.2 buffer), in data set [2] (pH 4.5 buffer) and in data set [2] (pH 6.8 buffer) were 105 µg/mL (≈ 194 µM), less than 1 µg/mL and less than 1 µg/mL, respectively. In data set [5], the EC50 is 4 nM.

`CS(C)(=O)=NCc1ccc(-c2ccc(-c3nc4[nH]c(O[C@@H]5CO[C@H]6[C@@H]5OC[C@H]6O)nc4cc3Cl)cc2)cc1` [Example 45, N-(4′-(6-Chloro-2-((3R,3aR,6R,6aR)-6-hydroxyhexahydrofuro[3,2-b]furan-3-yloxy)-3H-imidazo[4,5-b]pyridin-5-yl)biphenyl-4-ylmethyl)-S,S-dimethylsulfoximide]: the “Plasma Protein Binding” value was 98.48 % bound in the data set with plasma proteins [1], 98.94 % bound with plasma proteins [3] and 99.23 % bound in the data set on plasma proteins [4]. Further, the solubility at 24 h in data set [2] (pH 2.2 buffer) was more than 119 µg/mL; in data set [2] (pH 4.5 buffer) it was 5 µg/mL (≈ 9.01 µM); in data set [2] (pH 6.8 buffer) it was less than 1 µg/mL. The compound further displayed an EC50 in data set [5] of 29 nM.
